Assay results taken from US8399442B2, “Pharmaceutical compounds” (priority 2005, dated 2013).
Where a name gives a salt, the structure may show the parent alone. Blank lines part the entries; values can stand above or below the molecule they belong to.

Legend:
[1] = Physicochemical parameters (pKa, logP, logD)
physchem [2] = settings: water
physchem [3] = settings: water, thermodynamic from solid
[4] = tested on: primary human mammary epithelial cells; settings: 24 h
Chk2 = target: T1, Chk2 (Homo sapiens, UniProt O96017); experiment: Kinase inhibitory activity assay (Upstate, 33P-ATP); assay type: biochemical; settings: read-out: Inhibition of kinases in vitro, % at 30 nM
T1 construct: purchased Upstate Discovery Ltd
Experimental: Where inhibition was high an IC50 was determined.

T1 sequence (O96017 whole entry): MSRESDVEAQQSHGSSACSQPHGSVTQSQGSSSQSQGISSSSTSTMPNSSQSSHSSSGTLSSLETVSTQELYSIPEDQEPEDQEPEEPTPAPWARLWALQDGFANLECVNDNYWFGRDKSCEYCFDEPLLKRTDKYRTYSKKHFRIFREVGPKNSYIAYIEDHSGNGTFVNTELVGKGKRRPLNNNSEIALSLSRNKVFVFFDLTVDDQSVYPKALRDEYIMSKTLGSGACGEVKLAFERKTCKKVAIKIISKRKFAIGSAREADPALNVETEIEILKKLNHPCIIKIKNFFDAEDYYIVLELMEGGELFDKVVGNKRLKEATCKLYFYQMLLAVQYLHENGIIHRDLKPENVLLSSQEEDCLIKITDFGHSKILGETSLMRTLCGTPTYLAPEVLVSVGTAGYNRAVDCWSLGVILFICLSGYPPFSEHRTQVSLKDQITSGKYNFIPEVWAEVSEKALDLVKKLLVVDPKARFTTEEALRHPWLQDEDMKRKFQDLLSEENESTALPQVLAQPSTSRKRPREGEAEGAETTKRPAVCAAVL

- logP [1]: 3.24
- logPion [1]: 0.36
- logD ([1]; pH=6): 2.27
- logD ([1]; pH=6.5): 2.68
- logD ([1]; pH=7.4): 3.11
Molecule: 1-(2,6-difluorophenyl)-N-[3-(5-morpholin-4-ylmethyl-1H-benzimidazol-2-yl)-1H-pyrazol-4-yl]-urea

- melting point: 190 °C
Molecule: O=C(Nc1c[nH]nc1-c1nc2cc(CN3CCOCC3)ccc2[nH]1)Nc1c(F)cccc1F (as salt: hydrochloride) [1-(2,6-difluorophenyl)-N-[3-(5-morpholin-4-ylmethyl-1H-benzimidazol-2-yl)-1H-pyrazol-4-yl]-urea]

Molecule: O=C(Nc1c[nH]nc1-c1nc2cc(CN3CCOCC3)ccc2[nH]1)NC1CC1 [Acetate]
- solubility (physchem [2]; thermodynamic from solid): > 25 mg/mL
- solubility (physchem [3]): > 100 mg/mL

Molecule: O=C(Nc1c[nH]nc1-c1nc2cc(CN3CCOCC3)ccc2[nH]1)NC1CC1 [D-Gluconate]
- solubility (physchem [2]; thermodynamic from solid): > 25 mg/mL

Molecule: O=C(Nc1c[nH]nc1-c1nc2cc(CN3CCOCC3)ccc2[nH]1)NC1CC1 [D-Glucuronate]
- solubility (physchem [2]): > 25 mg/mL
- solubility at 20 h (physchem [2]; thermodynamic from solid): > 50 mg/mL
- solubility (physchem [3]): > 100 mg/mL

Molecule: O=C(Nc1c[nH]nc1-c1nc2cc(CN3CCOCC3)ccc2[nH]1)NC1CC1 [compound of formula (I^0)]
- effect of treatment on normal cells cf. tumor cells [4]: fewer become multinucleated or die after treatment, but instead undergo reversible G2/M arrest
- inhibition at 0.03 µM (Chk2): 41%
